Measured values reported in paper PMC2953525, “Subtle Alterations in PCNA-Partner Interactions Severely Impair DNA Replication and Repair” (PLoS Biology, 2010).

B1: pol30-79: previously studied PCNA mutant with decreased partner binding, IDCL sequence DIDADFAKAEEL (protein)
chain: MLEAKFEEASLFKRIIDGFKDCVQLVNFQCKEDGIIAQAVDDSRVLLVSLEIGVEAFQEYRCDHPVTLGMDLTSLSKILRCGNNTDTLTLIADNTPDSIILLFEDTKKDRIAEYSLKLMDIDADFAKAEELQYDSTLSLPSSEFSKIVRDLSQLSDSINIMITKETIKFVADGDIGSGSVIIKPFVDMEHPETSIKLEMDQPVDLTFGAKYLLDIIKGSSLSDRVGIRLSSEAPALFQFDLKSGFLQFFLAPKFNDEE
modifications: left off: Gal4 activation domain, end not stated, kept

Experiments:
Ung1 PIP peptide = assay: SPR analysis of PCNA binding to PIP peptide; design: species or system yeast; details: PCNA immobilized, peptide 5-5,000 nM, ProteOn XPR36; read-out: Binding affinity for Ung1 PIP peptide (SPR)
Source text: To quantify differences in binding affinities of the PCNA mutants relative to the WT, we characterized four PCNA mutants with increased affinity for PIP peptides derived from Rad30, Pol32, Msh6, and Ung1 partners using SPR. These mutants were overexpressed in E. coli, purified by affinity chromatography, and immobilized on an SPR sensor chip for binding characterization. SPR binding analysis enabled direct and sensitive measurement of interaction affinities relative to the Y2H system and indicated an up to 8-fold increase in binding affinity for the different PIP peptides, relative to WT PCNA (Table 1). Such analysis allowed the detection of a significant decrease in the Rad30 PIP peptide dissociation rate in the Pol30-Rad30E9p mutant relative to the WT, indicating a ∼9-fold increase in the lifetime of the PCNA-Rad30 complex (see Table 1). Collectively the ELISA, Y2H, and SPR assays validated and quantified the increase in mutant PCNA binding affinities, relative to WT PCNA.
Protein interaction assays were carried out using the ProteOn XPR36 (Bio-Rad) instrument. WT or PCNA mutants (0.4 to 5.2 fmol) were immobilized on the surface of a GLM sensor chip by a carbodiimide-activated succinimide-coupling method, as specified by the manufacturer. All SPR experiments were performed by flowing 150 µl of the target peptide at a flow rate of 30 µl/min onto the PCNA-bound chip. Different concentrations (5–5,000 nM) of PIP peptides (Table 1) were injected over the PCNA chip, and binding parameters were determined using ProteOn XPR36 software (Bio-Rad). The ligand (PCNA) and analyte (peptide) buffers were PBST and 150 mM NaCl, 1 mM EDTA, 0.01% Tween-80, 30 mM Hepes, pH 7.5, respectively.

[1] = test system: mutated Rad30 PIP peptide; assay: Yeast surface display of PCNA, PIP peptide binding by flow cytometry; details: peptide with the two conserved phenylalanines mutated to alanine
Experimental: (§1) Briefly, EBY100 transformed with plasmid pCTCON-PCNA were grown in SDCAA media to logarithmic phase and 2×10^6 of cells were washed, resuspended in SGCAA induction media, and grown at 20°C with shaking for an additional 18 h. Induced cells (1×10^6) were collected by centrifugation, washed with PBSF (PBS+ 1 g/L BSA), and incubated for 1 h at 25°C with mouse α-Myc antibodies (Santa Cruz Biotechnology, 1 µl/50 µl PBSF) and 100–400 µM of biotinylated PIP peptide (Peptron, see Figure S1 for peptide sequences). […] The labeled cells were washed, resuspended with PBSF, and analyzed by flow cytometry (FACS Calibur, BD).
(§2) Supplementary file pbio.1000507.s003.pdf: Figure S3 Yeast surface display of PCNA. […] Expression is detected through fluorescent antibody binding to the c-Myc epitope tag (light blue) while binding of the biotinylated PIP peptide (orange) is detected using fluorescently-labeled streptavidin (green). […] The specificity of PCNA binding for PIP peptides was detected following incubation with biotinylated PIP peptide derived from Rad30 (B and D) and mutated Rad30 in which the two conserved phenylalanine residues of the PIP peptide are mutated to alanine (C), followed by incubation with allophycocyanin (APC)-labeled streptavidin (y-axis). […]

Rad30 PIP peptide = assay: as above; details: biotinylated peptide, APC-streptavidin, compared with WT PCNA / Rad30 PIP peptide
Experimental: as §1, §2

Molecule | Kd (Ung1 PIP peptide) [nM] | binding to a mutated Rad30 PIP peptide (yeast surface display) [1] | binding to the Rad30 PIP peptide (yeast surface display) (Rad30 PIP peptide)
POL30: wild-type yeast PCNA (POL30), IDCL sequence DIDADFLKIEEL | 1200 | dramatic reduction in binding affinity | 
B1 |  |  | dramatic reduction in binding affinity
